In patent US20230403873A1, “ORGANIC COMPOUND AND ORGANIC LIGHT-EMITTING DEVICE” (CANON KABUSHIKI KAISHA, priority 2022, published 2023):

What was measured:
Assay type in all cases: physicochemical
[1] = Evaluation of solubility in toluene; settings: organic solvent or mixture, thermodynamic from solid; 50 mg in 1 mL of toluene, stirred at room temperature
Procedure: First, 50 mg of compound (25), 50 mg of compound (29), which were synthesized in the above examples, and 50 mg of compound A as a comparative example were placed in respective sample bottles each containing 1 mL of toluene. The mixtures were stirred at room temperature to determine whether the compounds were dissolved.

[2] = Evaluation of thermal properties: weight-loss initiation temperature by thermogravimetry/differential thermal analyzer STA7200; settings: under atmospheric pressure
Procedure: (§1) The weight-loss initiation temperatures of compounds (1), (5), (10) and compound A, serving as a compound of a comparative example, under atmospheric pressure were measured with a thermogravimetry/differential thermal analyzer STA7200 (available from Hitachi High-Tech Science Corporation). In addition, the sublimation temperature was defined as the temperature at which the rate of weight loss under vacuum (2 Pa) reached 5% and was measured with a thermogravimetry/differential thermal analyzer TA7000 (available from Hitachi High-Tech Science Corporation).

[3] = Evaluation of thermal properties: sublimation temperature under vacuum by thermogravimetry/differential thermal analyzer TA7000; settings: temperature at which the rate of weight loss under vacuum (2 Pa) reached 5%
Procedure: as §1

Row | Compound | solubility [1] | Weight-loss initiation temperature [2] | Sublimation temperature [3]
1 | CC(C)(C)c1cc2ccc3cc4c(c5ccc(c1)c2c35)-c1ccc(-c2ccc3c(c2)C2(c5ccccc5-c5ccccc52)c2cc(-c5ccc6c(c5)C(C)(C)c5cc7ccc8cc(C(C)(C)C)cc9ccc(c5-6)c7c89)ccc2-3)cc1C4(C)C [Compound (25)] | > 50 mg/mL |  | 
2 | CC(C)(C)c1cc2ccc3cc4c(c5ccc(c1)c2c35)-c1ccc(-c2ccc(-c3ccc(-c5ccc6c(c5)C(C)(C)c5cc7ccc8cc(C(C)(C)C)cc9ccc(c5-6)c7c89)cc3)cc2)cc1C4(C)C [Compound A] | < 50 mg/mL | 550 °C | 470 °C
3 | CC(C)(C)c1cc2ccc3cc4c(c5ccc(c1)c2c35)-c1ccc(-c2ccc3c(c2)C2(c5ccccc5-3)c3ccccc3-c3ccc(-c5ccc6c(c5)C(C)(C)c5cc7ccc8cc(C(C)(C)C)cc9ccc(c5-6)c7c89)cc32)cc1C4(C)C [Compound (29)] | > 50 mg/mL |  | 
4 | CC(C)(C)c1cc2ccc3cc4c(c5ccc(c1)c2c35)-c1ccc(-c2ncnc(-c3ccc5c(c3)C(C)(C)c3cc6ccc7cc(C(C)(C)C)cc8ccc(c3-5)c6c78)n2)cc1C4(C)C [Compound (5)] |  | 385 °C | 315 °C
5 | CC(C)(C)c1cc2ccc3cc4c(c5ccc(c1)c2c35)-c1ccc(-c2cccc(-c3ccc5c(c3)C(C)(C)c3cc6ccc7cc(C(C)(C)C)cc8ccc(c3-5)c6c78)n2)cc1C4(C)C [(10)] |  | 260 °C | 205 °C
6 | CC(C)(C)c1cc2ccc3cc4c(c5ccc(c1)c2c35)-c1ccc(-c2cc(-c3ccc5c(c3)C(C)(C)c3cc6ccc7cc(C(C)(C)C)cc8ccc(c3-5)c6c78)ncn2)cc1C4(C)C [Compound (1)] |  | 450 °C | 385 °C
